Here are results for nine compounds from ChEMBL document CHEMBL3792327, “Discovery and modelling studies of natural ingredients from Gaultheria yunnanensis (FRANCH.) against phosphodiesterase-4” (Eur J Med Chem, 2016).

For experiment [1], the target named is 3',5'-cyclic-AMP phosphodiesterase 4D (Homo sapiens, UniProt Q08499). The experiment can be described thus: Inhibition of PDE4D2 catalytic domain (86 to 413 residues) (unknown origin) using [3H]-cAMP as substrate after 15 mins by liquid scintillation counting method.
Chain of 3',5'-cyclic-AMP phosphodiesterase 4D (Q08499 whole entry, the tested form may be a part): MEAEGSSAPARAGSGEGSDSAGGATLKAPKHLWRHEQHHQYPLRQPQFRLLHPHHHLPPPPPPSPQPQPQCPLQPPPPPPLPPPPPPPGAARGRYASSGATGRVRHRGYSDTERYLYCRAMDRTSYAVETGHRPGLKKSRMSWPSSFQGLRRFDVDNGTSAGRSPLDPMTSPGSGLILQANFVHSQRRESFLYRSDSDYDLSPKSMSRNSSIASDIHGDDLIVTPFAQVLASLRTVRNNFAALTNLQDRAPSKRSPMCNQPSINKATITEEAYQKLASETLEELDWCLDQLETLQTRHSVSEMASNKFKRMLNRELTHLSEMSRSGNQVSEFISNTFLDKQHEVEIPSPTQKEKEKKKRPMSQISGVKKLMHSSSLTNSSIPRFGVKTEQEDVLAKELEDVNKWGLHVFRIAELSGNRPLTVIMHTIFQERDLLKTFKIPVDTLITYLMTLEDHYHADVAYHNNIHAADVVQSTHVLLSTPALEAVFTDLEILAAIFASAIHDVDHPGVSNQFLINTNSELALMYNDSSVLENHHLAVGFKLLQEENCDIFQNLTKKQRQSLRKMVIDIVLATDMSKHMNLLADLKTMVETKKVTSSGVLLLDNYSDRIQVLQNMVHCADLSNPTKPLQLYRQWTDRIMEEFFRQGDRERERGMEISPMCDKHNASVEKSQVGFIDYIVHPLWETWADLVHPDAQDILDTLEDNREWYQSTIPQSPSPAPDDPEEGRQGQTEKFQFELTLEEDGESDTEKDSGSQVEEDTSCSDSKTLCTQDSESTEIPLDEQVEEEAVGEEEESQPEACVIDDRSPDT
The target in experiment [2] is cAMP and cAMP-inhibited cGMP 3',5'-cyclic phosphodiesterase 10A (Homo sapiens, UniProt Q9Y233). The experiment can be described thus: Inhibition of PDE10A2 catalytic domain (448 to 789 residues) (unknown origin) using [3H]-cGMP/[3H]-cAMP as substrate after 15 mins by liquid scintillation counting method.
Chain of cAMP and cAMP-inhibited cGMP 3',5'-cyclic phosphodiesterase 10A (Q9Y233 whole entry, the tested form may be a part): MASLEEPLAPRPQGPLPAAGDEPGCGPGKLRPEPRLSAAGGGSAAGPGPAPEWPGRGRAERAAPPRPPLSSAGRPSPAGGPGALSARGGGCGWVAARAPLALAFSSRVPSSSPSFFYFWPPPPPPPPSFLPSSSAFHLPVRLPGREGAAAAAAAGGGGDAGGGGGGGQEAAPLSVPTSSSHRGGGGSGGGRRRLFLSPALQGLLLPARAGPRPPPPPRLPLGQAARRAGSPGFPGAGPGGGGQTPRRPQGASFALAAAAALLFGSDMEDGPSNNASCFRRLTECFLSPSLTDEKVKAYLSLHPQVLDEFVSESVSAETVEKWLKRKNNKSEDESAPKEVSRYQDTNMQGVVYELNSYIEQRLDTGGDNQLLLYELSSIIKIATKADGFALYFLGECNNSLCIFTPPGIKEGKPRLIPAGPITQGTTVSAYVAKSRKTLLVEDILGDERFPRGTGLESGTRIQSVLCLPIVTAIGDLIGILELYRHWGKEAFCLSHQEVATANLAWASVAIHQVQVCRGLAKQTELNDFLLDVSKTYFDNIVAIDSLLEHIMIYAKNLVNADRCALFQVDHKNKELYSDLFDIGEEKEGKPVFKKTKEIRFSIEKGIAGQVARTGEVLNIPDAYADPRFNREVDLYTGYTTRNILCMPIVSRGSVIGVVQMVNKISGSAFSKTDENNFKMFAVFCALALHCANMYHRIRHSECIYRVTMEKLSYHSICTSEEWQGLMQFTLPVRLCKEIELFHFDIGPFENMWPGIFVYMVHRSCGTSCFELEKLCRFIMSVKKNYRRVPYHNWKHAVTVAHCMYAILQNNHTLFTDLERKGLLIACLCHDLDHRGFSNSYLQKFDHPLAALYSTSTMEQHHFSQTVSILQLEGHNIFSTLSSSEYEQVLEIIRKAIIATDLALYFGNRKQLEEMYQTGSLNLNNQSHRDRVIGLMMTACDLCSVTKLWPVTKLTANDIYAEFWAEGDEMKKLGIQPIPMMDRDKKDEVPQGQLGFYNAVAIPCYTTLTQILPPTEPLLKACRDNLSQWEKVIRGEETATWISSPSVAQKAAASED
The target of experiment [3] is Dual specificity calcium/calmodulin-dependent 3',5'-cyclic nucleotide phosphodiesterase 1B (Homo sapiens, UniProt Q01064). In words: Inhibition of PDE1B2 catalytic domain (10 to 487 residues) (unknown origin) using [3H]-cGMP/[3H]-cAMP as substrate after 15 mins by liquid scintillation counting method.
Chain of Dual specificity calcium/calmodulin-dependent 3',5'-cyclic nucleotide phosphodiesterase 1B (Q01064 whole entry, the tested form may be a part): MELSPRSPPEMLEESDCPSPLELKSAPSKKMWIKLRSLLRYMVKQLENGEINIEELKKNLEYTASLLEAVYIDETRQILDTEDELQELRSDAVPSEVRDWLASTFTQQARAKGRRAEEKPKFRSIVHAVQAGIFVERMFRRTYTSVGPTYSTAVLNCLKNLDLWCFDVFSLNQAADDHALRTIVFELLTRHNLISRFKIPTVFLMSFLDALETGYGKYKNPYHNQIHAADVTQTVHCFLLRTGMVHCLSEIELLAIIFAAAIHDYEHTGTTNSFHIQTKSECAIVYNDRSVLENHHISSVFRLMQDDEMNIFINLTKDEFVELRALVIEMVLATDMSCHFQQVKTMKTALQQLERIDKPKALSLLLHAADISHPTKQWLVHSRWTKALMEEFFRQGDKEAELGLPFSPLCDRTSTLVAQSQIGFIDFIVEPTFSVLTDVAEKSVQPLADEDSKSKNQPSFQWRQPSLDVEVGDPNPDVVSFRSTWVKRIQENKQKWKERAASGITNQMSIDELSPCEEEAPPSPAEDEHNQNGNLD
Experiment [4] has as its target High affinity cGMP-specific 3',5'-cyclic phosphodiesterase 9A (Homo sapiens, UniProt O76083). The experiment can be described thus: Inhibition of PDE9A2 catalytic domain (181 to 506 residues) (unknown origin) using [3H]-cGMP/[3H]-cAMP as substrate after 15 mins by liquid scintillation counting method.
For experiment [5], the target named is cGMP-specific 3',5'-cyclic phosphodiesterase (Homo sapiens, UniProt O76074). The experiment can be described thus: Inhibition of PDE5A1 catalytic domain (535 to 860 residues) (unknown origin) using [3H]-cGMP as substrate after 15 mins by liquid scintillation counting method.
Experiment [6] is filed under the species Homo sapiens. The experiment can be described thus: Selectivity index, ratio of IC50 for PDE5A1 catalytic domain (535 to 860 residues) (unknown origin) to IC50 for PDE4D2 catalytic domain (86 to 413 residues) (unknown origin).
The species named for experiment [7] is Homo sapiens. In words: Selectivity index, ratio of IC50 for PDE1B2 catalytic domain (10 to 487 residues) (unknown origin) to IC50 for PDE4D2 catalytic domain (86 to 413 residues) (unknown origin).
Experiment [8] has as its target cGMP-dependent 3',5'-cyclic phosphodiesterase (Homo sapiens, UniProt O00408). The experiment can be described thus: Inhibition of PDE2A3 catalytic domain (222 to 904 residues) (unknown origin) using [3H]-cGMP/[3H]-cAMP as substrate after 15 mins by liquid scintillation counting method.
The species entered for experiment [9] is Homo sapiens. In words: Selectivity index, ratio of IC50 for PDE9A2 catalytic domain (181 to 506 residues) (unknown origin) to IC50 for PDE4D2 catalytic domain (86 to 413 residues) (unknown origin).
For experiment [10], the species on record is Homo sapiens. The experiment can be described thus: Selectivity index, ratio of IC50 for PDE10A2 catalytic domain (448 to 789 residues) (unknown origin) to IC50 for PDE4D2 catalytic domain (86 to 413 residues) (unknown origin).
The species entered for experiment [11] is Homo sapiens. In words: Selectivity index, ratio of IC50 for PDE2A3 catalytic domain (222 to 904 residues) (unknown origin) to IC50 for PDE4D2 catalytic domain (86 to 413 residues) (unknown origin).

Each structure is given as a SMILES string.

Chain of High affinity cGMP-specific 3',5'-cyclic phosphodiesterase 9A (O76083 whole entry, the tested form may be a part): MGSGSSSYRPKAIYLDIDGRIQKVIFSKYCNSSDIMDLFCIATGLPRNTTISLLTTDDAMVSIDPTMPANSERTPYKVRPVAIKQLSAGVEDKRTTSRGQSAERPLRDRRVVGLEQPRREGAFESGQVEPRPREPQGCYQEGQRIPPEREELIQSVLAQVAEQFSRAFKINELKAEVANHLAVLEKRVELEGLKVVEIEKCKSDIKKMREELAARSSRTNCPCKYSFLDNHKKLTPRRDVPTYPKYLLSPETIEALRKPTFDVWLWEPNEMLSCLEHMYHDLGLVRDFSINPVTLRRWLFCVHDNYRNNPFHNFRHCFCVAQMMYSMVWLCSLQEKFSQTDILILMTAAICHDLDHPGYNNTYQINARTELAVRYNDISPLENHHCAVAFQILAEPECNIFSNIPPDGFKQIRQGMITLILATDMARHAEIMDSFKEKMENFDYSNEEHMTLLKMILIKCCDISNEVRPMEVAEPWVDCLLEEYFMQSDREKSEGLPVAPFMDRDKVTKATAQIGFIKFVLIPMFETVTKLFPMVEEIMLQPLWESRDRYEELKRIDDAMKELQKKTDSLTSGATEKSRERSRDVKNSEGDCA
Chain of cGMP-dependent 3',5'-cyclic phosphodiesterase (O00408 whole entry, the tested form may be a part): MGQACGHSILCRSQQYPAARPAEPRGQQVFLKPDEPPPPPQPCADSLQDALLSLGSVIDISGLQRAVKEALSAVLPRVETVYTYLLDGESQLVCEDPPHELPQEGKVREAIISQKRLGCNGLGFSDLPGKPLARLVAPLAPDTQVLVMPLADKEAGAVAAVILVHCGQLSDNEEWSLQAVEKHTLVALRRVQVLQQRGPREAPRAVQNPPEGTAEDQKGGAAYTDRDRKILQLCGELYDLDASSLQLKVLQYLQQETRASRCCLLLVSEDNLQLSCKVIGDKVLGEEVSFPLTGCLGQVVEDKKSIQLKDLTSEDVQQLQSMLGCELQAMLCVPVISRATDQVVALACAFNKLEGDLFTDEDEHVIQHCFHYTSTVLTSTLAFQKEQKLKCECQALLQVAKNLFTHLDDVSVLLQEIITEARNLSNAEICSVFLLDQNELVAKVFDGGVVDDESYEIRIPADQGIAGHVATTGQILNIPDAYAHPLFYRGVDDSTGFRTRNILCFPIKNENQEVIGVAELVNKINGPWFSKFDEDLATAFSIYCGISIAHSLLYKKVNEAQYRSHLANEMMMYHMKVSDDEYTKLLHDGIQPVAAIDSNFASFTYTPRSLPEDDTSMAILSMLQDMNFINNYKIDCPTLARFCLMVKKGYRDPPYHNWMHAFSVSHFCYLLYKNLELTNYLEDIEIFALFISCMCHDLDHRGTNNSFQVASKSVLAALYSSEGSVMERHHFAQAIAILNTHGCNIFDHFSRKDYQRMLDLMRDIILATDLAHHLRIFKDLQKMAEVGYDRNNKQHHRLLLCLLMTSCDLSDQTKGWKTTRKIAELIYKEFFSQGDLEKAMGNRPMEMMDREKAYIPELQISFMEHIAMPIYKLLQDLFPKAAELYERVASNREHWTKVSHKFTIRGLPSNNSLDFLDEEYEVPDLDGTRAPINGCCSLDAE

As for `COc1cc(CCCO)cc(OC)c1O`, in experiment [1], the 50% inhibitory concentration (IC50) was more than 20 µM.
Still for that read-out and setting: the figure for `C=C1CC[C@]2(C(=O)O)CC[C@]3(C)C(=CC[C@@H]4[C@@]5(C)C[C@@H](O)[C@@H](O)C(C)(C)[C@@H]5CC[C@]43C)[C@@H]2[C@H]1C` is more than 20 µM; for `COc1cc([C@@H]2Oc3c(OC)cc(CCCO)cc3[C@H]2CO[C@@H]2OC[C@@H](O)[C@H](O)[C@H]2O)ccc1O` it is more than 20 µM.
For the compound `C=C1CC[C@]2(C(=O)O)CC[C@]3(C)C(=CC[C@@H]4[C@@]5(C)C[C@@H](O)[C@@H](OC(=O)/C=C/c6ccc(O)cc6)C(C)(C)[C@@H]5CC[C@]43C)[C@@H]2[C@H]1C`, the IC50 in [2] was more than 20 µM; in experiment [3], 2.63 µM; in experiment [4], 4.83 µM; in [5], 3.81 µM; in experiment [8], more than 50 µM; in experiment [1], 0.245 µM. Further, the Ratio IC50 in the experiment listed under Homo sapiens [6] is 16; in the experiment listed under Homo sapiens [7], 11; in the experiment filed under Homo sapiens [9], 20; in the experiment listed under Homo sapiens [10], more than 82; in the experiment listed under Homo sapiens [11] it was more than 204.
`CC1=CC(=O)CC(C)(C)[C@]1(O)/C=C/[C@@H](C)O` displayed a half-maximal inhibitory concentration (IC50) in [1] of more than 20 µM.
For the compound `COc1cc([C@H]2Oc3c(OC)cc(CCCO)cc3[C@@H]2CO[C@@H]2OC[C@@H](O)[C@H](O)[C@H]2O)ccc1O`, the IC50 in experiment [1] is more than 20 µM.
The same measure, in the same setting: the result for `COc1cc([C@H]2c3c(cc(OC)c(O)c3OC)C[C@@H](CO)[C@@H]2CO[C@@H]2OC[C@@H](O)[C@H](O)[C@H]2O)cc(OC)c1O` [LYONISIDE] reads more than 20 µM; that for `COc1cc([C@H]2c3cc(O)c(OC)cc3C[C@@H](CO)[C@@H]2CO[C@@H]2OC[C@@H](O)[C@H](O)[C@H]2O)ccc1O`, more than 20 µM.
On to `C=C1CC[C@]2(C(=O)O)CC[C@]3(C)C(=CC[C@@H]4[C@@]5(C)C[C@@H](O)[C@@H](OC(=O)/C=C\c6ccc(O)cc6)C(C)(C)[C@@H]5CC[C@]43C)[C@@H]2[C@H]1C`, for which, in experiment [1], the IC50 was determined as 0.542 µM.
